Tests used:
Type in all cases: cell-based, human
cancer cells [1] = test: Inhibition test of cancer cell sphere-forming ability, overall statement on Table 2; conditions: summary of Table 2
Procedure: HCT-116 cells (derived from human colon adenocarcinoma), HT-29 cells (derived from human colon cancer), FaDu cells (derived from human hypopharynx cancer) were obtained from American Type Culture Collection (ATCC). HCT-116 cells and HT-29 cells were cultured using McCoy's 5a medium containing 10% fetal bovine serum (FBS) and 1% penicillin/streptomycin, and FaDu cells were cultured using MEM medium containing 10% FBS, 1% non-essential amino acid, 1% sodium pyruvate, and 1% penicillin/streptomycin, respectively, at 37° C. in the presence of 5% CO2. HCT-116 cells, HT-29 cells, and FaDu cells were seeded onto 384 Well Black Clear Bottom Ultra-Low Attachment Microplate (Corning Cat. No. 3827) using DMEM/F12 medium containing 2% B27 supplement (GIBCO), 20 ng/mL epidermal growth factor (EGF) (peprotech), 10 ng/mL basic fibroblast growth factor (bFGF) (peprotech), 5 μg/mL insulin (Sigma), and 1% penicillin/streptomycin to be 350-800 cells/well. A test substance was added so that the final concentration of DMSO is 0.1%, and then cultured for 4 days. The number of living cells was then counted using Cell Titer-Glo (registered trademark) Luminescent Cell Viability Assay (Promega) to calculate the concentration for 50% inhibition of cell proliferation of respective test substances (Sphere IC50 value; μM).

HT-29 cells [2] = test: Proliferation inhibition assay of cancer cells (Test Example 1), HT-29; conditions: Homo sapiens, HT-29, 96 h, HT-29 cells, cultured for 4 days, Cell Titer-Glo; read-out: IC50 (μM) HT; concentration for 50% inhibition of cell proliferation (Bulk IC50 value)
Procedure, shortened: (§1)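 Human HCT-116 and HT-29 colon and FaDu hypopharyngeal cancer lines seeded at 300-600 cells/well in 384-well format, then given test substance at 0.1% final DMSO. Growth measured after 4 days of culture.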

FaDu cells [3] = test: Inhibition assay of cancer cell sphere-forming ability (Test Example 2), FaDu; conditions: Homo sapiens, FaDu, 96 h, FaDu cells, Ultra-Low Attachment plate, serum-free DMEM/F12 with B27, EGF, bFGF, insulin, 4 days, Cell Titer-Glo; read-out: IC50 (μM) FaDu; concentration for 50% inhibition of cell proliferation (Sphere IC50 value)
Procedure, shortened: (§2)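 Human tumour lines (colon HCT-116, HT-29; hypopharynx FaDu) seeded on ultra-low-attachment plates to form spheres. Compound added at 0.1% final DMSO, cultured 4 days.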

HT-29 cells [4] = test: Inhibition assay of cancer cell sphere-forming ability (Test Example 2), HT-29; conditions: Homo sapiens, HT-29, 96 h, HT-29 cells, Ultra-Low Attachment plate, serum-free DMEM/F12 with B27, EGF, bFGF, insulin, 4 days, Cell Titer-Glo; read-out: IC50 (μM) HT; concentration for 50% inhibition of cell proliferation (Sphere IC50 value)
Procedure, shortened: as §2

HCT-116 cells [5] = test: Proliferation inhibition assay of cancer cells (Test Example 1), HCT-116; conditions: Homo sapiens, HCT-116, 96 h, HCT-116 cells, cultured for 4 days, Cell Titer-Glo; read-out: IC50 (μM) HCT; concentration for 50% inhibition of cell proliferation (Bulk IC50 value)
Procedure, shortened: as §1

FaDu cells [6] = test: Proliferation inhibition assay of cancer cells (Test Example 1), FaDu; conditions: Homo sapiens, FaDu, 96 h, FaDu cells, cultured for 4 days, Cell Titer-Glo; read-out: IC50 (μM) FaDu; concentration for 50% inhibition of cell proliferation (Bulk IC50 value)
Procedure, shortened: as §1

HCT-116 cells [7] = test: Inhibition assay of cancer cell sphere-forming ability (Test Example 2), HCT-116; conditions: Homo sapiens, HCT-116, 96 h, HCT-116 cells, Ultra-Low Attachment plate, serum-free DMEM/F12 with B27, EGF, bFGF, insulin, 4 days, Cell Titer-Glo; read-out: IC50 (μM) HCT; concentration for 50% inhibition of cell proliferation (Sphere IC50 value)
Procedure, shortened: as §2

cancer cells [8] = test: Proliferation inhibition test of cancer cells, overall statement on Table 1; conditions: summary of Table 1
Procedure: HCT-116 cells (derived from human colon adenocarcinoma), HT-29 cells (derived from human colon cancer), and FaDu cells (derived from human hypopharynx cancer) were obtained from American Type Culture Collection (ATCC). HCT-116 cells and HT-29 cells were cultured using McCoy's 5a medium containing 10% fetal bovine serum (FBS) and 1% penicillin/streptomycin, and FaDu cells were cultured using MEM medium containing 10% FBS, 1% non-essential amino acid, 1% sodium pyruvate, and 1% penicillin/streptomycin, respectively, at 37° C. in the presence of 5% CO2. After cells were seeded at 300-600 cells/well onto black μClear-plate 384 well (Greiner bio-one Cat. No. 781091), a test substance was added such that the final concentration of DMSO is 0.1%, and cultured for 4 days. The number of living cells was then counted using Cell Titer-Glo (Registered trademark) Luminescent Cell Viability Assay (Promega) to calculate a concentration for 50% inhibition of cell proliferation of respective test substances (Bulk IC50 value; μM).

SMILES | effect to inhibit cancer cell sphere-forming ability (in words) (cancer cells [1]) | IC50 (HT-29 cells [2]) | IC50 (FaDu cells [3]) | IC50 (HT-29 cells [4]) | IC50 (HCT-116 cells [5]) | IC50 (FaDu cells [6]) | IC50 (HCT-116 cells [7]) | effect on the inhibition of the proliferation of cancer cells (in words) (cancer cells [8])
N#Cc1cc2c(s1)C(=O)c1ccncc1C2=O [Example 29, 4,9-dioxo-4,9-dihydrothieno[2,3-g]isoquinoline-2-carbonitrile] | particularly strong effect | 0.32 µM | < 0.01 µM | 0.05 µM | 0.04 µM | < 0.01 µM | 0.05 µM | particularly strong effect
CC(F)c1cc2c(s1)C(=O)c1ccncc1C2=O (stereo not drawn) [Example 30, 2-(1-fluoroethyl)thieno[2,3-g]isoquinoline-4,9-dione] | particularly strong effect | 0.05 µM | < 0.01 µM | < 0.01 µM | < 0.01 µM | < 0.01 µM | < 0.01 µM | particularly strong effect
CCc1noc(-c2cc3c(s2)C(=O)c2ccncc2C3=O)n1 [Example 31, 2-(3-ethyl-1,2,4-oxadiazol-5-yl)thieno[2,3-g]isoquinoline-4,9-dione] | particularly strong effect | 0.31 µM | < 0.01 µM | < 0.01 µM | 0.04 µM | < 0.01 µM | 0.03 µM | particularly strong effect

Reference: patent publication US10934309B2, “Tricyclic quinone derivative” (Boston Biomedical, Inc., priority 2014, dated 2021)
